One data set concerns HUVECs. In words: Tube formation assay (anti-angiogenic activity). On Angiogenesis inhibition: test concentration or dose not given here. Format: cell-based, human. As to conditions: incubation 16 to 18 hours; for IC50: Homo sapiens, HUVEC. In short, it runs like this:
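HUVECs plated at 5000 cells/well on reduced growth factor basement membrane matrix, then exposed to compounds for 16 to 18 hours at 37°C. Cells stained with calcein-AM; tube networks imaged by confocal fluorescence microscopy and quantified.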

The test system of another data set is MDA-MB-231 cells. In words: Cytotoxicity assay (CellTiter-Glo 2.0) on MDA-MB-231 cells. On Cytotoxicity: test concentration or dose not given here. As to conditions: incubation 3 days; for IC50: Homo sapiens, 72 h. Format: cell-based, Human. In short, it runs like this:
(§1)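 Compound-treated cells, incubation time varying by line; CellTiter-Glo 2.0 ATP luminescence; relative IC50.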

Another data set has as its system 4T1 cells. Briefly: Cytotoxicity assay (CellTiter-Glo 2.0) on 4T1 cells. On Cytotoxicity: test concentration or dose not given here. Format: cell-based, Mouse. As to conditions: incubation 2 days; for IC50: Mus musculus, 48 h. In a few lines: as §1
Another data set deals with EoL-1 cells. In words: Cytotoxicity assay (CellTiter-Glo 2.0) on EoL-1 cells. On Cytotoxicity: test concentration or dose not given here. Format: cell-based, Human. As to conditions: incubation 1 day; for IC50: Homo sapiens, EOL1, 24 h. In short, it runs like this: as §1
The next data set has as its system RD cells. Briefly: Cytotoxicity assay (CellTiter-Glo 2.0) on RD cells. On Cytotoxicity: test concentration or dose not given here. Format: cell-based, Human. As to conditions: for IC50: Homo sapiens. In short, it runs like this: as §1

The structures appear in SMILES notation.

For `CSc1cc(Oc2ccnc3c2OCC(=O)N3)ccc1NC(=O)Nc1cc(C(C)(C)C)nn1C` [Compound 022, 1-(5-tert-butyl-2-methyl-pyrazol-3-yl)-3-[2-methylsulfanyl-4-[(3-oxo-4H-pyrido[3,2-b][1,4]oxazin-8-yl)oxy]phenyl]urea], the IC50 with HUVECs was below 0.1 µM; in the data set with MDA-MB-231 cells it was 1 to 5 µM; in the data set on 4T1 cells, 1 to 5 µM; in the data set with EoL-1 cells it was below 0.001 µM; in the data set with RD cells (48 h, 2 day-treatment), 1 to 5 µM; with RD cells (96 h, 4 day-treatment) it was 1 to 5 µM. In the data set with HUVECs, the Angiogenesis inhibition entry is given as “++ (80% > angiogenesis inhibition ≥ 50%)”. The Cytotoxicity result is recorded as “++ (50% ≤ cytotoxicity < 85%)” in the data set with MDA-MB-231 cells; “+++ (cytotoxicity ≥ 85%)” in the data set on 4T1 cells; “+++ (cytotoxicity ≥ 85%)” with EoL-1 cells; “++ (50% ≤ cytotoxicity < 85%)” in the data set on RD cells (2 day-treatment); “++ (50% ≤ cytotoxicity < 85%)” in the data set with RD cells (4 day-treatment).
In the case of `CSc1cc(Oc2ccnc3c2OCC(=O)N3)ccc1NC(=O)Nc1cc(C(C)(C)C)nn1-c1ccc(C)nc1` [Compound 019, 1-[5-tert-butyl-2-(6-methyl-3-pyridyl)pyrazol-3-yl]-3-[2-methylsulfanyl-4-[(3-oxo-4H-pyrido[3,2-b][1,4]oxazin-8-yl)oxy]phenyl]urea], the IC50 in the data set with HUVECs was below 0.1 µM; with MDA-MB-231 cells, 1 to 5 µM; in the data set with 4T1 cells it was 1 to 5 µM; in the data set with EoL-1 cells, 0.001 to 0.01 µM; in the data set with RD cells (48 h, 2 day-treatment), 1 to 5 µM; in the data set with RD cells (96 h, 4 day-treatment), 1 to 5 µM. Moreover, in the data set on HUVECs, the Angiogenesis inhibition result is reported as “+++ (angiogenesis inhibition ≥ 80%)”. For the same molecule, the Cytotoxicity result with MDA-MB-231 cells is recorded as “++ (50% ≤ cytotoxicity < 85%)”; in the data set with 4T1 cells, “+++ (cytotoxicity ≥ 85%)”; in the data set on EoL-1 cells, “+++ (cytotoxicity ≥ 85%)”; in the data set with RD cells (2 day-treatment), “++ (50% ≤ cytotoxicity < 85%)”; in the data set with RD cells (4 day-treatment) it was “++ (50% ≤ cytotoxicity < 85%)”.
On to `CSc1cc(Oc2ccnc3c2CCC(=O)N3)ccc1NC(=O)Nc1cc(C(C)(C)C)nn1-c1cccc(CN2CCOCC2)c1` [Compound 047, 1-[5-tert-butyl-2-[3-(morpholinomethyl)phenyl]pyrazol-3-yl]-3-[2-methylsulfanyl-4-[(7-oxo-6,8-dihydro-5H-1,8-naphthyridin-4-yl)oxy]phenyl]urea], for which the IC50 was below 0.1 µM with HUVECs; 1 to 5 µM in the data set on MDA-MB-231 cells; below 1 µM in the data set with 4T1 cells; 0.001 to 0.01 µM with EoL-1 cells; 5 to 10 µM in the data set on RD cells (48 h, 2 day-treatment); 1 to 5 µM with RD cells (96 h, 4 day-treatment). The Angiogenesis inhibition entry in the data set on HUVECs was “+++ (angiogenesis inhibition ≥ 80%)”. The Cytotoxicity entry with MDA-MB-231 cells is given as “++ (50% ≤ cytotoxicity < 85%)”; in the data set on 4T1 cells, “+++ (cytotoxicity ≥ 85%)”; in the data set with EoL-1 cells, “+++ (cytotoxicity ≥ 85%)”; in the data set with RD cells (2 day-treatment) it was “++ (50% ≤ cytotoxicity < 85%)”; in the data set on RD cells (4 day-treatment), “++ (50% ≤ cytotoxicity < 85%)”.
`CC(C)(C)c1cc(NC(=O)Nc2ccc(Oc3ccnc4c3CCC(=O)N4)cc2C(F)(F)F)no1` [Compound 024, 1-(5-tert-butylisoxazol-3-yl)-3-[4-[(7-oxo-6,8-dihydro-5H-1,8-naphthyridin-4-yl)oxy]-2-(trifluoromethyl)phenyl]urea]: the IC50 with HUVECs fell in the range of 0.1 to 0.5 µM; in the data set with MDA-MB-231 cells it was 1 to 5 µM; in the data set on 4T1 cells, 1 to 5 µM; with EoL-1 cells, 0.001 to 0.01 µM; with RD cells (48 h, 2 day-treatment), 1 to 5 µM; in the data set on RD cells (96 h, 4 day-treatment), 1 to 5 µM. In addition, in the data set with HUVECs, the Angiogenesis inhibition result is on record as “++ (80% > angiogenesis inhibition ≥ 50%)”. Besides, the Cytotoxicity result is “++ (50% ≤ cytotoxicity < 85%)” with MDA-MB-231 cells; “++ (50% ≤ cytotoxicity < 85%)” in the data set on 4T1 cells; “+++ (cytotoxicity ≥ 85%)” in the data set on EoL-1 cells; “++ (50% ≤ cytotoxicity < 85%)” in the data set on RD cells (2 day-treatment); “++ (50% ≤ cytotoxicity < 85%)” with RD cells (4 day-treatment).
Take `Cc1ccc(-n2nc(C(C)(C)C)cc2NC(=O)Nc2ccc(Oc3ccnc4c3CCC(=O)N4)cc2C(F)(F)F)cc1` [Compound 010, 1-[5-tert-butyl-2-(p-tolyl)pyrazol-3-yl]-3-[4-[(7-oxo-6,8-dihydro-5H-1,8-naphthyridin-4-yl)oxy]-2-(trifluoromethyl)phenyl]urea]: the IC50 is 0.1 to 0.5 µM with HUVECs; 1 to 5 µM in the data set on MDA-MB-231 cells; 1 to 5 µM with 4T1 cells; 0.01 to 0.1 µM in the data set with EoL-1 cells; 5 to 10 µM in the data set on RD cells (48 h, 2 day-treatment); 5 to 10 µM in the data set on RD cells (96 h, 4 day-treatment). Besides, in the data set on HUVECs, the Angiogenesis inhibition result was “+++ (angiogenesis inhibition ≥ 80%)”. Also, the Cytotoxicity entry is given as “++ (50% ≤ cytotoxicity < 85%)” in the data set with MDA-MB-231 cells; “+++ (cytotoxicity ≥ 85%)” with 4T1 cells; “++ (50% ≤ cytotoxicity < 85%)” with EoL-1 cells; “++ (50% ≤ cytotoxicity < 85%)” in the data set with RD cells (2 day-treatment); “++ (50% ≤ cytotoxicity < 85%)” in the data set on RD cells (4 day-treatment).
With `CSc1cc(Oc2ccnc3c2CCC(=O)N3)ccc1NC(=O)Nc1ncc(C(C)(C)C)s1` [Compound 004, 1-(5-(tert-butyl)thiazol-2-yl)-3-(2-(methylthio)-4-((7-oxo-5,6,7,8-tetrahydro-1,8-naphthyridin-4-yl)oxy)phenyl)urea], the IC50 with HUVECs is 0.1 to 0.5 µM; with MDA-MB-231 cells, below 1 µM; with 4T1 cells, 1 to 5 µM; in the data set with EoL-1 cells, 0.001 to 0.01 µM; in the data set on RD cells (48 h, 2 day-treatment) it was 1 to 5 µM; in the data set on RD cells (96 h, 4 day-treatment), 1 to 5 µM. Also, the Angiogenesis inhibition result in the data set with HUVECs is reported as “+++ (angiogenesis inhibition ≥ 80%)”. The Cytotoxicity result was “++ (50% ≤ cytotoxicity < 85%)” in the data set on MDA-MB-231 cells; “+++ (cytotoxicity ≥ 85%)” with 4T1 cells; “+++ (cytotoxicity ≥ 85%)” with EoL-1 cells; “+ (20 % ≤ cytotoxicity < 50%)” in the data set with RD cells (2 day-treatment); “++ (50% ≤ cytotoxicity < 85%)” with RD cells (4 day-treatment).
Regarding `CC(C)(C)c1cc(NC(=O)Nc2ccc(Oc3ccnc4c3CCC(=O)N4)c3ccccc23)on1` [Compound 009, 1-(3-(tert-butyl)isoxazol-5-yl)-3-(4-((7-oxo-5,6,7,8-tetrahydro-1,8-naphthyridin-4-yl)oxy)naphthalen-1-yl)urea], the IC50 is below 0.1 µM in the data set on HUVECs; below 1 µM with MDA-MB-231 cells; below 1 µM in the data set on 4T1 cells; 0.001 to 0.01 µM in the data set on EoL-1 cells; 1 to 5 µM with RD cells (48 h, 2 day-treatment); 1 to 5 µM in the data set on RD cells (96 h, 4 day-treatment). In addition, the Angiogenesis inhibition result with HUVECs is recorded as “+++ (angiogenesis inhibition ≥ 80%)”. The Cytotoxicity result with MDA-MB-231 cells was “++ (50% ≤ cytotoxicity < 85%)”; in the data set on 4T1 cells it was “+++ (cytotoxicity ≥ 85%)”; with EoL-1 cells, “+++ (cytotoxicity ≥ 85%)”; in the data set with RD cells (2 day-treatment), “++ (50% ≤ cytotoxicity < 85%)”; in the data set with RD cells (4 day-treatment), “++ (50% ≤ cytotoxicity < 85%)”.
For the molecule `CN(C)Cc1cccc(-n2nc(C(C)(C)C)cc2NC(=O)Nc2ccc(Oc3ccnc4c3CCC(=O)N4)cc2C(F)(F)F)c1` [Compound 028, 1-[5-tert-butyl-2-[3-[(dimethylamino)methyl]phenyl]pyrazol-3-yl]-3-[4-[(7-oxo-6,8-dihydro-5H-1,8-naphthyridin-4-yl)oxy]-2-(trifluoromethyl)phenyl]urea], the IC50 in the data set with HUVECs is below 0.1 µM; in the data set on MDA-MB-231 cells it was 1 to 5 µM; in the data set with 4T1 cells it was below 1 µM; with EoL-1 cells, 0.001 to 0.01 µM; with RD cells (48 h, 2 day-treatment), 1 to 5 µM; in the data set on RD cells (96 h, 4 day-treatment), 1 to 5 µM. The Angiogenesis inhibition result with HUVECs is “+++ (angiogenesis inhibition ≥ 80%)”. In addition, the Cytotoxicity entry is on record as “+++ (cytotoxicity ≥ 85%)” with MDA-MB-231 cells; “+++ (cytotoxicity ≥ 85%)” in the data set with 4T1 cells; “++ (50% ≤ cytotoxicity < 85%)” in the data set on EoL-1 cells; “++ (50% ≤ cytotoxicity < 85%)” in the data set on RD cells (2 day-treatment); “+++ (cytotoxicity ≥ 85%)” in the data set on RD cells (4 day-treatment).
Take `CSc1cc(Oc2ccnc3c2OCC(=O)N3)ccc1NC(=O)Nc1cc(C(C)(C)C)nn1-c1cccc(CN2CCOCC2)c1` [Compound 035, 1-[5-tert-butyl-2-[3-(morpholinomethyl)phenyl]pyrazol-3-yl]-3-[2-methylsulfanyl-4-[(3-oxo-4H-pyrido[3,2-b][1,4]oxazin-8-yl)oxy]phenyl]urea]: the IC50 in the data set on HUVECs was 0.1 to 0.5 µM; with MDA-MB-231 cells, 1 to 5 µM; with 4T1 cells, 1 to 5 µM; in the data set with EoL-1 cells it was 0.001 to 0.01 µM; in the data set on RD cells (48 h, 2 day-treatment), 1 to 5 µM; in the data set with RD cells (96 h, 4 day-treatment), 5 to 10 µM. Further, the Angiogenesis inhibition entry with HUVECs is “+++ (angiogenesis inhibition ≥ 80%)”. In addition, the Cytotoxicity entry with MDA-MB-231 cells is listed as “+++ (cytotoxicity ≥ 85%)”; in the data set on 4T1 cells, “+++ (cytotoxicity ≥ 85%)”; in the data set on EoL-1 cells, “+++ (cytotoxicity ≥ 85%)”; with RD cells (2 day-treatment), “++ (50% ≤ cytotoxicity < 85%)”; with RD cells (4 day-treatment) it was “++ (50% ≤ cytotoxicity < 85%)”.
In the case of `CC(C)(C)c1cc(NC(=O)Nc2ccc(Oc3ccnc4c3OCC(=O)N4)cc2C(F)(F)F)n(-c2cccc(CN3CCOCC3)c2)n1` [Compound 044, 1-[5-tert-butyl-2-[3-(morpholinomethyl)phenyl]pyrazol-3-yl]-3-[4-[(3-oxo-4H-pyrido[3,2-b][1,4]oxazin-8-yl)oxy]-2-(trifluoromethyl)phenyl]urea], the IC50 is 0.1 to 0.5 µM in the data set on HUVECs; 5 to 10 µM with MDA-MB-231 cells; 1 to 5 µM in the data set with 4T1 cells; 0.01 to 0.1 µM in the data set with EoL-1 cells; at least 10 µM in the data set on RD cells (48 h, 2 day-treatment); at least 10 µM with RD cells (96 h, 4 day-treatment). For the same molecule, the Angiogenesis inhibition entry in the data set with HUVECs is “+++ (angiogenesis inhibition ≥ 80%)”. Besides, the Cytotoxicity result in the data set on MDA-MB-231 cells is “+ (20 % ≤ cytotoxicity < 50%)”; with 4T1 cells, “+++ (cytotoxicity ≥ 85%)”; with EoL-1 cells it was “++ (50% ≤ cytotoxicity < 85%)”; in the data set with RD cells (2 day-treatment) it was “+ (20 % ≤ cytotoxicity < 50%)”; in the data set on RD cells (4 day-treatment) it was “+ (20 % ≤ cytotoxicity < 50%)”.
